From ChEMBL document CHEMBL5543073, “Synthesis, biological activity evaluation and mechanism analysis of new ganglioside GM3 derivatives as potential agents for nervous functional recovery” (Eur J Med Chem, 2024)
The source made the active and inactive calls. No cut-off for these calls is given here.

What was measured:
N2a [1] = assay: Induction of cell proliferation in mouse Neuro2a cells at 50 uM incubated for 48 hrs by CCK8 assay; assay type: functional, cell-based
PC-12 = assay: Cytotoxicity against rat PC12 cells assessed as inhibition of cell viability incubated for 48 hrs by CCK8 assay; assay type: functional, cell-based; details: PC-12, 48 h
SH-SY5Y [2] = assay: Cytotoxicity against human SH-SY5Y cells assessed as inhibition of cell viability incubated for 48 hrs by CCK8 assay; assay type: functional, cell-based
U-87 MG = assay: Cytotoxicity against human U-87 MG cells assessed as inhibition of cell viability incubated for 48 hrs by CCK8 assay; assay type: functional, cell-based, U-87MG ATCC
SH-SY5Y [3] = assay: Neuroprotective effect against MPP+-induced cytotoxicity in human SH-SY5Y cells assessed as increase in cell viability at 50 uM incubated for 24 hrs followed by MPP+ addition measured after 4 hrs by CCK8 assay relative to control; assay type: functional; details: time 28 hrs
N2a [4] = assay: Cytotoxicity against mouse Neuro2a cells assessed as inhibition of cell viability incubated for 48 hrs by CCK8 assay; assay type: functional, cell-based
[5] = Clearance in C57BL/6 mouse at 10 mg/kg, iv measured for 24 hrs; assay type: ADME, organism-based; details: in vivo
Neuron [6] = assay: Induction of neurite growth in mouse primary neurons at 50 uM incubated for 48 hrs in presence of NGF by imaging analysis; assay type: functional, cell-based
Neuron [7] = assay: Induction of neurite growth in mouse primary neurons assessed as increase in MAP2 level incubated for 48 hrs in presence of NGF by Western blot analysis; assay type: functional, cell-based
A-431 [8] = assay: Effect on Rac2 gene expression in human A-431 cells by RNA-Seq analysis; assay type: functional, cell-based
[9] = Half life in C57BL/6 mouse at 10 mg/kg, iv measured for 24 hrs; assay type: ADME, organism-based; details: in vivo
N2a [10] = assay: Downregulation of Wnt7b level in mouse Neuro2a cells at 50 uM incubated for 48 hrs by Western blot analysis; assay type: functional, cell-based
N2a [11] = assay: Effect on […] level in mouse Neuro2a cells at 50 uM incubated for 48 hrs by Western blot analysis; assay type: functional, cell-based
A-431 [12] = assay: Effect on Wnt7b gene expression in human A-431 cells by RNA-Seq analysis; assay type: functional, cell-based
Neuron [13] = assay: Induction of neurite growth in mouse primary neurons assessed as increase in neurite length at 50 uM incubated for 48 hrs by imaging analysis; assay type: functional, cell-based

| Compound | Activity (N2a [1]) | IC50 (PC-12) [µM] | IC50 (SH-SY5Y [2]) [µM] | IC50 (U-87 MG) [µM] | Activity (SH-SY5Y [3]) [%] | IC50 (N2a [4]) [µM] | CL [5] [µL/min/mg] | Activity (Neuron [6]) | Activity (Neuron [7]) | Activity (A-431 [8]) | half-life [9] [h] | Activity (N2a [10]) | Activity (N2a [11]) | Activity (A-431 [12]) | Activity (Neuron [13]) |
| --- | --- | --- | --- | --- | --- | --- | --- | --- | --- | --- | --- | --- | --- | --- | --- |
| CCCCCCCCCCCCC/C=C/[C@@H](O)[C@H](CO[C@@H]1O[C@H](CO)[C@@H](O[C@@H]2O[C@H](CO)[C@H](O)[C@H](O[C@]3(C(=O)O)C[C@H](O)[C@@H](NC(=O)c4cccc([N+](=O)[O-])c4)C([C@@H](O)[C@H](O)CO)O3)[C@H]2O)[C@H](O)[C@H]1O)NC(=O)CCCCCCCCCCCCCCCCC (some centres not stated) | Active | > 200 | > 200 | > 200 | 9.3 | > 200 | – | – | – | – | – | – | – | – | – |
| CCCCCCCCCCCCC/C=C/[C@@H](O)[C@H](CO[C@@H]1O[C@H](CO)[C@@H](O[C@@H]2O[C@H](CO)[C@H](O)[C@H](O[C@]3(C(=O)O)C[C@H](O)[C@@H](NC(=O)c4cc(C)cc(C)c4)C([C@@H](O)[C@H](O)CO)O3)[C@H]2O)[C@H](O)[C@H]1O)NC(=O)CCCCCCCCCCCCCCCCC (some centres not stated) | – | > 200 | > 200 | > 200 | – | > 200 | – | – | – | – | – | – | – | – | – |
| CCCCCCCCCCCCC/C=C/[C@@H](O)[C@H](CO[C@@H]1O[C@H](CO)[C@@H](O[C@@H]2O[C@H](CO)[C@H](O)[C@H](O[C@]3(C(=O)O)C[C@H](O)[C@@H](NC(=O)c4ccncc4)C([C@@H](O)[C@H](O)CO)O3)[C@H]2O)[C@H](O)[C@H]1O)NC(=O)CCCCCCCCCCCCCCCCC (some centres not stated) | – | > 200 | > 200 | > 200 | – | > 200 | – | – | – | – | – | – | – | – | – |
| CCCCCCCCCCCCC/C=C/[C@@H](O)[C@H](CO[C@@H]1O[C@H](CO)[C@@H](O[C@@H]2O[C@H](CO)[C@H](O)[C@H](O[C@]3(C(=O)O)C[C@H](O)[C@@H](NC(=O)Cc4cccc([N+](=O)[O-])c4)C([C@@H](O)[C@H](O)CO)O3)[C@H]2O)[C@H](O)[C@H]1O)NC(=O)CCCCCCCCCCCCCCCCC (some centres not stated) | Active | > 200 | > 200 | > 200 | 18.8 | > 200 | 0.467 | Active | Active | Active | 49.3 | Active | inactive | Active | Active |
| CCCCCCCCCCCCC/C=C/[C@@H](O)[C@H](CO[C@@H]1O[C@H](CO)[C@@H](O[C@@H]2O[C@H](CO)[C@H](O)[C@H](O[C@]3(C(=O)O)C[C@H](O)[C@@H](NC(=O)Cc4ccc(C)cc4)C([C@@H](O)[C@H](O)CO)O3)[C@H]2O)[C@H](O)[C@H]1O)NC(=O)CCCCCCCCCCCCCCCCC (some centres not stated) | – | > 200 | > 200 | > 200 | – | > 200 | – | – | – | – | – | – | – | – | – |
| CCCCCCCCCCCCC/C=C/[C@@H](O)[C@H](CO[C@@H]1O[C@H](CO)[C@@H](O[C@@H]2O[C@H](CO)[C@H](O)[C@H](O[C@]3(C(=O)O)C[C@H](O)[C@@H](NC(=O)Cc4ccc(Br)cc4)C([C@@H](O)[C@H](O)CO)O3)[C@H]2O)[C@H](O)[C@H]1O)NC(=O)CCCCCCCCCCCCCCCCC (some centres not stated) | – | > 200 | > 200 | > 200 | – | > 200 | – | – | – | – | – | – | – | – | – |
